Laboratory results taken from ChEMBL document CHEMBL1151341, “Constituents of Nealchornea yapurenis (Euophorbiaceae)” (J Nat Prod, 1980).
Active and inactive are the calls of the source. The calls are words filed in the database; no cut-off is given here.

Test system: P388
Assay: Antitumor activity against mouse P388 cells xenografted in mouse at 50 to 400 mg/kg
Type: functional, organism-based

SMILES	Activity
CC[C@H](CC[C@@H](C)[C@H]1CC[C@H]2[C@@H]3CC=C4C[C@@H](O)CC[C@]4(C)[C@H]3CC[C@]12C)C(C)C	inactive
CC[C@H](CC[C@@H](C)[C@H]1CC[C@H]2[C@@H]3CC=C4C[C@@H](O[C@@H]5O[C@H](CO)[C@@H](O)[C@H](O)[C@H]5O)CC[C@]4(C)[C@H]3CC[C@]12C)C(C)C	inactive
COc1cc2ccc(=O)oc2cc1O	inactive
CCCCCCCCCCCCCCCCCCCCCCCCCC(=O)O	inactive
